Values of other authors as cited in US9399756B2, “Functionalized fullerenes as a biomass stimulant and a life extension agent” (UNIVERSITY OF FLORIDA RESEARCH FOUNDATION, INC., priority 2010, dated 2016).

What was measured:
mice [1] = conditions: injected; Zhou et al. 2009
mice [2] = conditions: Quick et al., Neurobiology of Aging 2008

| Substance | hair growth in mice (mice [1]) | lifespan of mice (mice [2]) |
| --- | --- | --- |
| (H23C11CO2)2CC60C(CO2CH2CO2H)2 | may stimulate hair growth in mice |  |
| e,e,e-C60(C(CO2H)2)3 |  | may extend the lifespan of mice |
